From paper PMC6896172, “Successful Targeting of the Warburg Effect in Prostate Cancer by Glucose-Conjugated 1,4-Naphthoquinones” (Cancers, 2019) come the findings set out here.

The term IC50 denotes the concentration needed to halve the response being measured.

Data set [1] deals with human prostate cancer cell lines and human non-cancer cell lines. Description: MTT cytotoxicity profile in five prostate cancer versus five non-cancer cell lines. The note with it: 48 h. It is filed as cell-based. An excerpt: (§1) For general experiments human prostate cancer cell lines PC-3 and DU145 (docetaxel-resistant, androgen-independent, AR-FL(−), AR-V7(−)), 22Rv1 and VCaP (docetaxel-sensitive, androgen-independent, AR-FL(+), AR-V7(+), and LNCaP (docetaxel sensitive, androgen-dependent, AR-FL(+), AR-V7(−) were used. PC-3, 22Rv1, LNCaP cells as well as the human prostate non-cancer cells PNT2 and RWPE-1 were purchased from ATCC (Manassas, VA, USA). VCaP were purchased from ECACC (Salisbury, UK). The human fibroblast cell line MRC-9, the human embryonic kidney cell line HEK 293T, as well as the human umbilical vascular endothelial cell line HUVEC were kindly donated by Prof. Dr. Dr. med. Sonja Loges (University Medical Center Hamburg-Eppendorf, Hamburg, Germany). Cells were cultured according to the manufacturers’ instructions and were recently authenticated by a commercial service (Multiplexion, Heidelberg, Germany). Culture conditions are described in the Supplementary Information.
MTT (3-(4,5-dimethylthiazol-2-yl)-2,5-diphenyltetrazolium bromide) cytotoxicity assay was used for the evaluation of cytotoxicity of the compounds or their combinations. Experiments were performed as previously described. […]

For data set [2], the system named is PC-3 cells. Description: MTT cytotoxicity assay in PC-3 cells. To be noted: for IC50: 48 h of treatment; for SI [IC50(PNT2) / IC50(PC-3)]: ratio of IC50 in PNT2 cells to IC50 in PC-3 cells, 48 h. It is filed as cell-based, human.
From the text: as §1
(§2) MTT (3-(4,5-dimethylthiazol-2-yl)-2,5-diphenyltetrazolium bromide) cytotoxicity assay was used for the evaluation of cytotoxicity of the compounds or their combinations. Experiments were performed as previously described. In brief, 6000 cells/well were seeded in 96-well plate, incubated overnight, and treated with the drugs in 100 µL/well of 10% FBS/RPMI media containing 2 g/L of D-(+)-glucose for 48 h, unless otherwise stated. For 2 h treatment the cells were treated with the drugs for 2 h in the culture media, then the media was exchanged to fresh drug-free media (100 µL/well) containing MTT reagent and the further steps were performed as previously described.
(§3) Table S4. Cytotoxic activity of the synthesized compounds. Cytotoxicity was determined in human prostate cancer PC-3 cells versus human prostate non-cancer
(§4) PNT2 cells after 48 h of treatment, as well as its ratio. IC50 was evaluated using MTT assay. SI–selectivity index. #–the IC50s in both cell lines were >100 µM.
(§5) Anisomycin was used as a reference substance.
(§6) No Formula IC50(PC-3) IC50(PNT2) SI […]

Data set [3] has as its system PNT2 cells. The experiment in a line: MTT cytotoxicity assay in PNT2 cells. It is filed as cell-based, human. The note with it: 48 h of treatment.
From the text: as §1, §2, §3, §4, §5, §6
For orientation: Tetrazolium dyes change colour on reduction, which living cells bring about.

Data set [4] deals with 22Rv1 cells. Description: Colony formation assay. It is filed as cell-based, human. To be noted: 22Rv1 cells treated with non-cytotoxic concentrations for 48 h. As to the method: Colony formation assays were performed as described before. In brief, cells were treated with the drugs for 48 h and then 100 alive cells were plated into each well of 6-well plates and incubated for 10 days. Surviving colonies were fixed, stained with Giemsa solution and counted.

Data set [5] concerns HEK293 cells. The experiment in a line: MTT cytotoxicity assay in HEK293 cells. The format is cell-based. To be noted: Homo sapiens, 48 h of treatment, non-cancer. Here is the method:
(§7) Dr. Dr. med. Sonja Loges (University Medical Center Hamburg-Eppendorf, Hamburg, Germany). Cells were cultured according to the manufacturers’ instructions and were recently authenticated by a commercial service (Multiplexion, Heidelberg, Germany). Culture conditions are described in the Supplementary Information.
as §2

Data set [6] deals with MRC-9 cells. The experiment in a line: MTT cytotoxicity assay in MRC-9 cells. It is filed as cell-based. The note with it: Homo sapiens, MRC9, 48 h of treatment, non-cancer. As to the method:
as §7, §2

In data set [7] the test system is LNCaP cells. The experiment in a line: MTT cytotoxicity assay in LNCaP cells. It is filed as cell-based. The note with it: Homo sapiens, 48 h of treatment, cancer. As to the method: as §7, §2
Data set [8] has as its system VCaP cells. Description: MTT cytotoxicity assay in VCaP cells. It is filed as cell-based. To be noted: Homo sapiens, 48 h of treatment, cancer. As to the method:
as §7, §2

Data set [9] has as its system 22Rv1 cells. Description: Western blotting of treated cells. It is filed as cell-based, human. The note with it: for LC3B-II and SQSTM1 levels (autophagy markers): pre-cytotoxic and cytotoxic concentrations, 48 h. As to the method:
(§8) Preparation of protein extracts for western blotting was performed as described previously. In brief, for western blotting, 1 × 10^6 cells/well were seeded in Petri dishes (ø 6 cm TC Dish (Sarstedt, Numbrecht, Germany) in 5 mL/dish), incubated overnight and treated with drugs in 5 mL/dish for an indicated time. Cells were harvested using a cell scraper, pelleted, and resuspended in the lysis buffer containing protease and phosphatase inhibitors. Further sample preparation and western blotting were performed as previously described with slight modifications. Relative optical density of the detected bands was quantified with Quantity One 4.6 software (Bio-Rad, Hercules, CA, USA). The primary and secondary antibodies used are listed in the Supplementary Information.
A general note: A western blot detects proteins with antibodies after separation by electrophoresis.

For data set [10], the system named is DU145 cells. Description: MTT cytotoxicity assay in DU145 cells. The format is cell-based. To be noted: Homo sapiens, DU-145, 48 h of treatment, cancer. Here is the method: as §7, §2
For data set [11], the system named is 22Rv1 cells. The experiment in a line: Trypan blue exclusion viability assay. The format is cell-based. To be noted: Homo sapiens, 48 h of treatment. Here is the method: The in vitro effect of the drugs on cell viability and proliferation was evaluated using trypan blue exclusion assay as described before with minor modifications. In brief, cells (0.2 × 10^6 cells/well) were seeded in 12-well plates, incubated overnight, the media was replaced with fresh media (1 mL/well) and treated with the drugs for 48 h. Cells were harvested by trypsination and the viability was measured using trypan blue staining and Beckman Coulter Vi-CELL (Beckman Coulter, Krefeld, Germany).

Data set [12] has as its system HUVEC cells. Description: MTT cytotoxicity assay in HUVEC cells. It is filed as cell-based. The note with it: Homo sapiens, 48 h of treatment, non-cancer. As to the method:
as §7, §2

Data set [13] concerns 22Rv1 cells. Description: Mitochondrial membrane potential assay (JC-1, flow cytometry). To be noted: 2 h of treatment. It is filed as cell-based, human. Here is the method:
The loss of mitochondrial membrane potential (Δψ) was measured by flow cytometry technique using staining with Δψ-sensitive dye JC-1 (5,5′,6,6′-tetrachloro-1,1′,3,3′-tetraethylimidacarbocyanine iodide). Cells were seeded in 12-well plates (100 × 10^3 cells/well in 1 mL/well) and incubated overnight. Then, the media was changed to PBS (1 mL/well) containing the investigational drugs. After 2 h of incubation (37 °C, 5% CO2, in the dark) the cells were trypsinized, pelleted, resuspended in 100 µL of 2 µM JC-1/PBS, incubated for 1 h (37 °C, 5% CO2, in the dark) and Δψ loss was measured by flow cytometry technique.
In general terms: Flow cytometry measures light scatter and fluorescence of single cells or particles in a stream.

Data set [14] relates to 22Rv1 cells. The experiment in a line: MTT cytotoxicity assay in 22Rv1 cells. The format is cell-based, human. The note with it: for IC50: Homo sapiens. Here is the method: as §7, §2
The test system of data set [15] is 22Rv1 cells. The experiment in a line: Cell fractionation followed by Western blotting. The format is cell-based, human. The note with it: 48 h. Here is the method: as §8
22Rv1 cells were seeded in T75 culture bottles (4 × 10^6 cells/bottle in 20 mL/bottle), treated for 48 h and harvested by scratching. The further separation of cytosolic, mitochondrial and nuclear fractions was performed using the Cell Fractionation Kit ab109719 (abcam, Cambridge, MA) as previously described. Mitochondrial and cytosolic fractions were concentrated using Amicon® Ultra-2 Centrifugal Filter device (Cat. No. UFC203024, Merck, Darmstadt, Germany). Nuclear fractions were additionally homogenized using QIAshedder kit (QIAGEN, Hilden, Germany).

Data set [16] deals with RWPE-1 cells. Description: MTT cytotoxicity assay in RWPE-1 cells. The note with it: Homo sapiens, 48 h of treatment, non-cancer. The format is cell-based. As to the method: as §7, §2
Data set [17] deals with 22Rv1 cells. Description: Intracellular ROS (CM-H2DCFDA, flow cytometry). It is filed as cell-based, human. The note with it: 2 h of treatment. Here is the method:
Intracellular ROS levels were estimated using the ROS-sensitive CM-H2DCFDA reagent (Cat. No. C6827, Molecular probes, Invitrogen, Eugene, OR, USA) as described before. In brief, 22Rv1 cells were seeded in 12-well plates (0.2 × 10^6 cells/well in 1 mL/well of media) and incubated overnight. The media was changed into freshly made pre-warmed 4 µM CM-H2DCFDA/PBS (0.5 mL/well) and incubated for 30 min (37 °C, 5% CO2, in the dark). Then, the CM-H2DCFDA solution was exchanged with 1 mL/well of pre-warmed PBS containing the drugs or H2O2 (positive control) at the indicated concentrations. After 2 h of incubation the cells were trypsinized and immediately analyzed by flow cytometry technique according to the manufacture’s protocols.

The mark [18] stands for this setting: 22Rv1, 48 h of treatment, cancer, read-out: IC50 (22Rv1).
The mark [19] stands for this setting: 22Rv1 cells, 2 h treatment, read-out: IC50 after 2 h of treatment.

`COc1ccc(C[C@H]2NC[C@H](O)[C@H]2OC(C)=O)cc1` [Anisomycin, anisomycin, reference compound]: in [1], the “selectivity to prostate cancer cell lines versus non-cancer cell lines” value is “no selectivity was found”. For the same molecule, the 50% inhibitory concentration (IC50) in data set [2] came to 1.49 µM; in data set [3] it was 0.7 µM. Further, the “SI [IC50(PNT2) / IC50(PC-3)]” value in data set [2] came out at 0.47.

On to `CC1(C)OC2OC(C(O)COC3=CC(=O)c4c(O)cccc4C3=O)C(O)C2O1` (stereo not shown) [Compound 7], for which the “cancer cell colony formation” value in data set [4] is “suppress cancer cell colony formation”. The IC50 in data set [5] turned out to be 3.57 µM; in data set [6] it was 5.77 µM; in [7] it was 2.19 µM; in data set [8], 8.06 µM; in [10] it was 0.84 µM; in data set [11] it was 3.49 µM. The IC50 was found to be 9.04 µM in data set [12]; 1.61 µM in data set [14] (setting [18]); 24.2 µM in data set [14] (setting [19]); 6.1 µM in data set [2] (Homo sapiens, PC-3, 48 h); 3.39 µM in [16]; 7.29 µM in [3] (Homo sapiens, PNT2, 48 h). For the same molecule, the “cleavage of caspase-9” value in data set [9] (2 h and 48 h treatment) was “observed already after 2 h”. Besides, the “AR-FL and AR-V7 expression” value in data set [9] (48 h treatment) was “downregulated both, AR full length (AR-FL) and AR-V7”. Further, in [9] (48 h treatment), the “Bax and Bcl-2 expression” value was “up-regulation of Bax and down-regulation of Bcl-2”. Further, the “LC3B-II and SQSTM1 levels (autophagy markers)” value in data set [9] was “accumulation of both, LC3B-II and SQSTM1”. Besides, the “effect on ΔΨm” value in [13] is “quick ΔΨm loss”. Besides, in data set [14] (22Rv1 cells, 1 mM NaC 1 h then co-treatment 48 h, FBS- and glucose-free RPMI), the “effect of N-acetyl-L-cysteine pre-treatment on cytotoxic activity” value is on record as “significantly suppressed the cytotoxic activity”. Besides, the “release of mitochondrial proteins AIF and cytochrome C” value in data set [15] is given as “release of mitochondrial proteins”. Also, in [2], the “SI [IC50(PNT2) / IC50(PC-3)]” value was found to be 1.20. In addition, in data set [17], the “effect on ROS level” value was “remarkable and significant increase of the ROS level”.

With `O=C1C=C(OC[C@H]2OC(O)[C@H](O)[C@@H](O)[C@@H]2O)C(=O)c2c(O)cccc21` (stereo partly shown) [Compound 12], the “cancer cell colony formation” value in data set [4] is on record as “suppress cancer cell colony formation”. Besides, the IC50 in data set [5] amounted to 69.4 µM; in data set [6], 153 µM; in data set [7], 24 µM; in data set [8] it was 57.5 µM; in data set [10], 37.1 µM; in data set [11], 14.6 µM. Also, the IC50 turned out to be 45.7 µM in data set [12]; 23.4 µM in data set [14] (setting [18]); 94.9 µM in data set [14] (setting [19]); 48 µM in data set [16]; 103 µM in data set [3] (Homo sapiens, PNT2, 48 h). Moreover, in data set [9] (48 h treatment), the “AR-FL and AR-V7 expression” value is “downregulated both, AR full length (AR-FL) and AR-V7”. Moreover, the “LC3B-II and SQSTM1 levels (autophagy markers)” value in data set [9] was “accumulation of both, LC3B-II and SQSTM1”.
